Several values for one entry are separate records, joined by “and”; a condition that tells them apart may be missing. Equal values may be shown once. Inconclusive results and toxic doses are left out. Rule as the data show it: active = T/C of 150% or more; inactive = T/C below 125%.
System: L1210 leukemia ip in BDF1 mice, survival T/C
Experiment: NCI In Vivo Anticancer Drug Screen. Data for tumor model L1210 Leukemia (intraperitoneal) in B6D2F1 (BDF1) mice
Conditions: endpoint: mean survival time, higher = longer survival
Outline: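 Antitumor effect is assessed in tumor-bearing animals. Survival in the compound arm is compared with a vehicle-dosed control arm and expressed as their quotient.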

[1] = dose: 100.0 mg/kg/injection, schedule: Q01DX009 (ip), vehicle: saline
[2] = dose: 100.0 mg/kg/injection, schedule: Q04DX003 (ip), vehicle: saline
[3] = dose: 200.0 mg/kg/injection, schedule: Q01DX009 (ip), vehicle: saline
[4] = dose: 200.0 mg/kg/injection, schedule: Q04DX003 (ip), vehicle: saline
[5] = dose: 400.0 mg/kg/injection, schedule: Q01DX009 (ip), vehicle: saline
[6] = dose: 400.0 mg/kg/injection, schedule: Q04DX003 (ip), vehicle: saline
[7] = dose: 100.0 mg/kg/injection, schedule: Q04DX003 (ip), vehicle: saline with Tween-80
[8] = dose: 200.0 mg/kg/injection, schedule: Q04DX003 (ip), vehicle: saline with Tween-80
[9] = dose: 400.0 mg/kg/injection, schedule: Q04DX003 (ip), vehicle: saline with Tween-80
[10] = dose: 100.0 mg/kg/injection, schedule: Q01DX009 (ip), vehicle: Klucel (hydroxypropylcellulose) (HPC)
[11] = dose: 200.0 mg/kg/injection, schedule: Q01DX009 (ip), vehicle: Klucel (hydroxypropylcellulose) (HPC)
[12] = dose: 400.0 mg/kg/injection, schedule: Q01DX009 (ip), vehicle: Klucel (hydroxypropylcellulose) (HPC)

Measured: T/C

CCOP(=O)(CSCC)OCC
inactive: [1] 102 % of control | [2] 94 % of control | [3] 98 % of control | [4] 100 % of control | [5] 100 % of control | [6] 92 % of control

CC(C)CC(=O)OCc1ccc2c(c1)OCO2
inactive: dose: 222.0 mg/kg/injection, schedule: Q01DX Z (ip), vehicle: saline 109 % of control | dose: 333.0 mg/kg/injection, schedule: Q01DX Z (ip), vehicle: saline 102 % of control | dose: 500.0 mg/kg/injection, schedule: Q01DX Z (ip), vehicle: saline 108 % of control

NC(=O)Oc1ccccc1Cl
inactive: dose: 75.0 mg/kg/injection, schedule: Q04DX003 (ip), vehicle: Klucel (hydroxypropylcellulose) (HPC) 104 % of control | dose: 150.0 mg/kg/injection, schedule: Q04DX003 (ip), vehicle: Klucel (hydroxypropylcellulose) (HPC) 100 % of control | dose: 300.0 mg/kg/injection, schedule: Q04DX003 (ip), vehicle: Klucel (hydroxypropylcellulose) (HPC) 105 % of control

CCOC(=O)N(OC(C)=O)P(=O)(N1CC1(C)C)N1CC1(C)C (stereo not drawn)
inactive: dose: 100.0 mg/kg/injection, schedule: Q04DX002 (ip), vehicle: saline 100 % of control | dose: 200.0 mg/kg/injection, schedule: Q04DX002 (ip), vehicle: saline 123 % of control

COC(=O)C(C(=O)OC)C(Br)(OC(C)=O)OC(C)=O
inactive: [7] 98 % of control | [8] 100 % of control | [9] 106 % of control

Cc1[nH]c(=O)[nH]c(=O)c1/C=C/C(=O)NC(CO)CC(C)C (stereo not drawn)
inactive: dose: 12.5 mg/kg/injection, schedule: Q01DX009 (ip), vehicle: saline 98 % of control | dose: 25.0 mg/kg/injection, schedule: Q01DX009 (ip), vehicle: saline 102 % of control and 114 % of control | dose: 50.0 mg/kg/injection, schedule: Q01DX009 (ip), vehicle: saline 98 % of control | [1] 107 % of control and 108 % of control | [3] 101 % of control | dose: 300.0 mg/kg/injection, schedule: Q01DX009 (ip), vehicle: saline 114 % of control

Nc1c2c([nH]c(=O)c1N=O)CCC2
inactive: dose: 50.0 mg/kg/injection, schedule: Q01DX001 (ip), vehicle: saline 95 % of control | dose: 100.0 mg/kg/injection, schedule: Q01DX001 (ip), vehicle: saline 93 % of control | dose: 200.0 mg/kg/injection, schedule: Q01DX001 (ip), vehicle: saline 95 % of control | dose: 400.0 mg/kg/injection, schedule: Q01DX001 (ip), vehicle: saline 104 % of control

CCCCCCCCCCOc1ccc(C=Nc2ccc(CC)cc2)cc1
inactive: [10] 103 % of control | [11] 90 % of control | [12] 93 % of control

CC(C)(C)C(=O)CC(=O)C(C)(C)C.CC(C)(C)C(=O)CC(=O)C(C)(C)C.CC(C)(C)C(=O)CC(=O)C(C)(C)C.CC(C)(C)C(=O)CC(=O)C(C)(C)C.[Hf]
inactive: [10] 100 % of control | dose: 100.0 mg/kg/injection, schedule: Q04DX003 (ip), vehicle: Klucel (hydroxypropylcellulose) (HPC) 97 % of control | [11] 100 % of control | dose: 200.0 mg/kg/injection, schedule: Q04DX003 (ip), vehicle: Klucel (hydroxypropylcellulose) (HPC) 97 % of control | [12] 100 % of control | dose: 400.0 mg/kg/injection, schedule: Q04DX003 (ip), vehicle: Klucel (hydroxypropylcellulose) (HPC) 100 % of control

NC(=O)CC(NC(=O)OCc1ccccc1)C(=O)OCc1ccccc1 (stereo not drawn)
inactive: dose: 100.0 mg/kg/injection, schedule: Q01DX009 (ip), vehicle: saline with Tween-80 106 % of control | [7] 96 % of control | dose: 200.0 mg/kg/injection, schedule: Q01DX009 (ip), vehicle: saline with Tween-80 95 % of control | [8] 96 % of control | dose: 400.0 mg/kg/injection, schedule: Q01DX009 (ip), vehicle: saline with Tween-80 93 % of control | [9] 91 % of control

CC(=O)OCc1cccc(C)n1
inactive: [1] 97 % of control | [2] 94 % of control and 102 % of control | [3] 96 % of control | [4] 100 % of control | [5] 100 % of control | [6] 93 % of control and 97 % of control

CC(NC1=NCCO1)c1cccc2ccccc12 (stereo not drawn)
inactive: dose: 25.0 mg/kg/injection, schedule: Q01DX009 (ip), vehicle: saline with Tween-80 94 % of control | dose: 50.0 mg/kg/injection, schedule: Q01DX009 (ip), vehicle: saline with Tween-80 94 % of control | [7] 96 % of control | [8] 94 % of control | [9] 89 % of control

— PubChem BioAssay AID248 (DTP/NCI, 2004)
